Data from patent US20240279202A1 (NURIX THERAPEUTICS, INC., priority 2021, published 2024).

Target: T1, ITK (Mus musculus, UniProt Q03526)
T1 construct: mice were sacrificed and splenocytes were isolated and used to prepare protein lysates; from tissue; host or cells: mouse splenocytes (spleen) after oral dosing
T1 sequence (Q03526 1-625): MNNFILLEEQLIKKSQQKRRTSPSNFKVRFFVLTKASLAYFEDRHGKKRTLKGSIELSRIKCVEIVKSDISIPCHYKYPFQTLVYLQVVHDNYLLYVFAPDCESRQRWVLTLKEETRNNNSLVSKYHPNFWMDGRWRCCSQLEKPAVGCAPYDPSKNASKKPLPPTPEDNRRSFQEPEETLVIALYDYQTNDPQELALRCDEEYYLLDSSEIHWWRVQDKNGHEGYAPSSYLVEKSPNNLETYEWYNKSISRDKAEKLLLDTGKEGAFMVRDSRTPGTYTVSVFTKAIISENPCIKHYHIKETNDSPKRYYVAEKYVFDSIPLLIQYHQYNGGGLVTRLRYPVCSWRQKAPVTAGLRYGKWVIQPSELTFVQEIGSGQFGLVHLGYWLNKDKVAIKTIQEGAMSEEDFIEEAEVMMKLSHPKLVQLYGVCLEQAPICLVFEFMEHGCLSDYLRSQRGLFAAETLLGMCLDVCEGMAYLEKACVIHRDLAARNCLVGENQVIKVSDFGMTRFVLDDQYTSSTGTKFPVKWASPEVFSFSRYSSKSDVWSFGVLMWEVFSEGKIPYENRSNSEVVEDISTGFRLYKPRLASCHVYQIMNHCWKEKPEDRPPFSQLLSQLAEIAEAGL
Assay: Mouse PD assay for ITK degradation (Western blot, splenocytes after oral administration)
Type: in vivo
Conditions: for ITK (%) 90 mpk PO, 6 h: percent ITK remaining in mouse splenocytes relative to vehicle
How it was run: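 Mice dosed orally, some compounds at 90 mg/kg; splenocytes harvested after 6 hours (some 24 hours). ITK measured by Western blot of equal-protein lysates, normalized to actin. Values are % ITK remaining relative to vehicle-control mean.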

[1] = mice, oral, splenocytes, Western blot, 6 hours

SMILES	ITK (%) 90 mpk PO, 6 h	ITK degradation in vivo at 6 hours (FIG. 3A, FIG. 4A) [1]	further results
CN(C(=O)CCC1CCN(c2ccc(C(=O)NC3CCC(=O)NC3=O)nc2)C1)c1ccc2cc(-c3n[nH]c4c3C[C@@H]3C(F)(F)[C@]3(C)C4)[nH]c2c1 (stereo partly drawn) [Compound 69, 5-(3-(3-((2-((4aS,5aR)-5,5-difluoro-5a-methyl-1,4,4a,5,5a,6-hexahydrocyclopropa[f]indazol-3-yl)-1H-indol-6-yl)(methyl)amino)-3-oxopropyl)pyrrolidin-1-yl)-N-(2,6-dioxopiperidin-3-yl)picolinamide]	140%	–	–
CN(C(=O)CC[C@H]1CCN(c2ccc3c(c2)C(=O)N(C2CCC(=O)NC2=O)C3=O)C1)c1ccc2cc(-c3n[nH]c4c3C[C@@H]3C(F)(F)[C@]3(C)C4)[nH]c2c1 (stereo in doubt) [Compound 67, N-(2-((4aS,5aR)-5,5-difluoro-5a-methyl-1,4,4a,5,5a,6-hexahydrocyclopropafindazol-3-yl)-1H-indol-6-yl)-3-((3R)-1-(2-(2,6-dioxopiperidin-3-yl)-1,3-dioxoisoindolin-5-yl)pyrrolidin-3-yl)-N-methylpropanamide]	–	–	ITK (%) 90 mpk PO, 6 h (90 mg/kg): 190%
C[C@@H](C(=O)N(C)c1ccc2cc(-c3n[nH]c4c3CCC(C)(C)C4)[nH]c2c1)N1CCN(CC2CCN(c3ccc(C4CCC(=O)NC4=O)cn3)CC2)CC1 (stereo partly drawn) [Compound 10, (2S)—N-(2-(6,6-dimethyl-4,5,6,7-tetrahydro-1H-indazol-3-yl)-1H-indol-6-yl)-2(4-((1-(5-(2,6-dioxopiperidin-3-yl)pyridin-2-yl)piperidin-4-yl)methyl)piperazin-1-yl)-N-methylpropanamide]	11%	degraded ITK in vivo	–
Cn1c(=O)n(C2CCC(=O)NC2=O)c2cccc(N3CCC(CN4CCC5(CC4)CCN(c4ccc6cc(-c7n[nH]c8c7CCC(C)(C)C8)[nH]c6c4)C5=O)CC3)c21 (stereo not shown) [Compound 13, 3-(4-(4-((2-(2-(6,6-dimethyl-4,5,6,7-tetrahydro-1H-indazol-3-yl)-1H-indol-6-yl)-1-oxo-2,8-diazaspiro[4.5]decan-8-yl)methyl)piperidin-1-yl)-3-methyl-2-oxo-2,3-dihydro-1H-benzo[d]imidazol-1-yl)piperidine-2,6-dione]	15%	degraded ITK in vivo	–
C[C@@H](C(=O)N(C)c1ccc2cc(-c3n[nH]c4c3CCC(C)(C)C4)[nH]c2c1)N1CCN(C[C@H]2CCN(c3ccc4c(c3)CN(C3CCC(=O)NC3=O)C4=O)C2)CC1 (stereo partly drawn) [Compound 12, (2S)—N-(2-(6,6-dimethyl-4,5,6,7-tetrahydro-1H-indazol-3-yl)-1H-indol-6-yl)-2-(4-(((3R)-1-(2-(2,6-dioxopiperidin-3-yl)-1-oxoisoindolin-5-yl)pyrrolidin-3-yl)methyl)piperazin-1-yl)-N-methylpropanamide]	82%	degraded ITK in vivo	–
C[C@@]12Cc3[nH]nc(-c4cc5ccc(N6CCC7(CCN(CC8CCN(c9ccc(C%10CCC(=O)NC%10=O)cn9)CC8)CC7)C6=O)cc5[nH]4)c3C[C@@H]1C2(F)F (stereo partly drawn) [Compound 19, 3-(6-(4-((2-(2-((4aS,5aR)-5,5-difluoro-5a-methyl-1,4,4a,5,5a,6-hexahydrocyclopropa[f]indazol-3-yl)-1H-indol-6-yl)-1-oxo-2,8-diazaspiro[4.5]decan-8-yl)methyl)piperidin-1-yl)pyridin-3-yl)piperidine-2,6-dione]	8%	–	–
C[C@@H](C(=O)N(C)c1ccc2cc(-c3n[nH]c4c3CCC(C)(C)C4)[nH]c2c1)N1CCN(CC2CCN(c3ccc4c(c3)n(C)c(=O)n4C3CCC(=O)NC3=O)CC2)CC1 (stereo partly drawn) [Compound 6, (2S)—N-(2-(6,6-dimethyl-4,5,6,7-tetrahydro-1H-indazol-3-yl)-1H-indol-6-yl)-2-(4-((1-(1-(2,6-dioxopiperidin-3-yl)-3-methyl-2-oxo-2,3-dihydro-1H-benzo[d]imidazol-5-yl)piperidin-4-yl)methyl)piperazin-1-yl)-N-methylpropanamide]	105%	–	–
CN(C(=O)CN1CCC2(CC1)CCN(c1ccc3c(c1)C(=O)N(C1CCC(=O)NC1=O)C3=O)C2)c1ccc2cc(-c3n[nH]c4c3C[C@@H]3C(F)(F)[C@]3(C)C4)[nH]c2c1 (stereo partly drawn) [Compound 72, N-(2-((4aS,5aR)-5,5-difluoro-5a-methyl-1,4,4a,5,5a,6-hexahydrocyclopropa[f]indazol-3-yl)-1H-indol-6-yl)-2-(2-(2-(2,6-dioxopiperidin-3-yl)-1,3-dioxoisoindolin-5-yl)-2,8-diazaspiro[4.5]decan-8-yl)-N-methylacetamide]	116%	–	–
CN(C(=O)CCC1CCN(c2ccc3c(c2)C(=O)N(C2CCC(=O)NC2=O)C3=O)C1)c1ccc2cc(-c3n[nH]c4c3CCC(C)(C)C4)[nH]c2c1 (stereo not shown) [Compound 1, N-(2-(6,6-dimethyl-4,5,6,7-tetrahydro-1H-indazol-3-yl)-1H-indol-6-yl)-3-(1-(2-(2,6-dioxopiperidin-3-yl)-1,3-dioxoisoindolin-5-yl)pyrrolidin-3-yl)-N-methylpropanamide]	153%	–	ITK degradation in vivo at 6 hours (FIG. 2) (mice, 90 mg/kg PO, splenocytes, Western blot, 6 hours): degraded ITK in vivo
CN(C(=O)CC1CCN(CC2CCN(c3ccc(C4CCC(=O)NC4=O)cn3)CC2)CC1)c1ccc2cc(-c3n[nH]c4c3C[C@@H]3C(F)(F)[C@]3(C)C4)[nH]c2c1 (stereo partly drawn) [Compound 73, N-(2-((4aS,5aR)-5,5-difluoro-5a-methyl-1,4,4a,5,5a,6-hexahydrocyclopropa[f]indazol-3-yl)-1H-indol-6-yl)-2-(1-((1-(5-(2,6-dioxopiperidin-3-yl)pyridin-2-yl)piperidin-4-yl)methyl)piperidin-4-yl)-N-methylacetamide]	92%	–	–
CN(c1ccc2cc(-c3n[nH]c4c3C[C@@H]3C(F)(F)[C@]3(C)C4)[nH]c2c1)C(=O)[C@H]1C[C@]2(CCN(c3ccc4c(c3)C(=O)N([C@H]3CCC(=O)NC3=O)C4=O)C2)C1 (racemic) [Compound 71b, (2s,4s)-N-[2-[(4aS,5aR)-5,5-difluoro-5a-methyl-1H,4H,4aH,6H-cyclopropa[f]indazol-3-yl]-1H-indol-6-yl]-6-[2-[(3RS)-2,6-dioxopiperidin-3-yl]-1,3-dioxoisoindol-5-yl]-N-methyl-6-azaspiro[3.4]octane-2-carboxamide]	30%	–	–
CN(C(=O)CC[C@H]1CCN(c2ccc3c(c2)C(=O)N(C2CCC(=O)NC2=O)C3=O)C1)c1ccc2cc(-c3n[nH]c4c3C[C@@H]3C(F)(F)[C@]3(C)C4)[nH]c2c1 (stereo in doubt) [Compound 68]	–	–	ITK (%) 90 mpk PO, 6 h (90 mg/kg): 240%
C[C@@H](C(=O)N(C)c1ccc2cc(-c3n[nH]c4c3C[C@@H]3C(F)(F)[C@]3(C)C4)[nH]c2c1)N1CCN(CC2CCN(c3ccc(C4CCC(=O)NC4=O)cn3)CC2)CC1 (stereo partly drawn) [Compound 17, (2S)—N-(2-((4aS,5aR)-5,5-difluoro-5a-methyl-1,4,4a,5,5a,6-hexahydrocyclopropa[f]indazol-3-yl)-1H-indol-6-yl)-2-(4-((1-(5-(2,6-dioxopiperidin-3-yl)pyridin-2-yl)piperidin-4-yl)methyl)piperazin-1-yl)-N-methylpropanamide]	20%	degraded ITK in vivo	ITK degradation in vivo at 24 hours (FIG. 3A, FIG. 4A) (mice, oral, splenocytes, Western blot, 24 hours): degraded ITK
